For 23 compounds, T/C results are on record in PubChem BioAssay AID328 (DTP/NCI, 2004).

Several values for one entry are separate records, joined by “and”; a condition that tells them apart may be missing. Equal entries are not always repeated. Toxic doses and inconclusive results are not listed.

For the test, the system named is BDF1 mice, P388 leukemia ip, median survival T/C. Kind of test: NCI In Vivo Anticancer Drug Screen. Data for tumor model P388 Leukemia (intraperitoneal) in B6D2F1 (BDF1) mice. The note with it: endpoint: median survival time, higher = longer survival. The essentials: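 Survival ratio, drug arm over vehicle arm, in mice with a transplanted tumour.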
The mark [1] stands for this setting: dose: 50.0 mg/kg/injection, schedule: Q01DX009 (ip), vehicle: saline with Tween-80.
The mark [2] stands for this setting: dose: 100.0 mg/kg/injection, schedule: Q01DX009 (ip), vehicle: saline with Tween-80.
[3] abbreviates: dose: 200.0 mg/kg/injection, schedule: Q01DX009 (ip), vehicle: saline with Tween-80.
Where [4] appears, read: dose: 100.0 mg/kg/injection, schedule: Q04DX003 (ip), vehicle: saline.
Where [5] appears, read: dose: 200.0 mg/kg/injection, schedule: Q01DX009 (ip), vehicle: saline.
Where [6] appears, read: dose: 200.0 mg/kg/injection, schedule: Q04DX003 (ip), vehicle: saline.
Setting [7] is: dose: 400.0 mg/kg/injection, schedule: Q01DX009 (ip), vehicle: saline.
The mark [8] stands for this setting: dose: 400.0 mg/kg/injection, schedule: Q04DX003 (ip), vehicle: saline.
[9] abbreviates: dose: 25.0 mg/kg/injection, schedule: Q01DX009 (ip), vehicle: Klucel (hydroxypropylcellulose) (HPC).
The mark [10] stands for this setting: dose: 50.0 mg/kg/injection, schedule: Q01DX009 (ip), vehicle: Klucel (hydroxypropylcellulose) (HPC).
Setting [11] is: dose: 100.0 mg/kg/injection, schedule: Q01DX009 (ip), vehicle: Klucel (hydroxypropylcellulose) (HPC).
The mark [12] stands for this setting: dose: 100.0 mg/kg/injection, schedule: Q04DX003 (ip), vehicle: saline with Tween-80.
Setting [13] is: dose: 200.0 mg/kg/injection, schedule: Q04DX003 (ip), vehicle: saline with Tween-80.

In the case of `O=c1c2ccccc2nc(-c2ccccc2Cl)n1-c1nnc(C(F)(F)F)s1`, the T/C (dose: 3.12 mg/kg/injection, schedule: Q01DX009 (ip), vehicle: saline with Tween-80) is 87 % of control; the T/C (dose: 6.25 mg/kg/injection, schedule: Q01DX009 (ip), vehicle: saline with Tween-80) was 89 % of control; the T/C (dose: 12.5 mg/kg/injection, schedule: Q01DX009 (ip), vehicle: saline with Tween-80) was 89 % of control.

`CC(=O)Oc1cccnc1C(C#N)C(C)=O` (configuration not stated): the T/C is 90 % of control (dose: 50.0 mg/kg/injection, schedule: Q01DX005 (ip), vehicle: saline with Tween-80); 99 % of control (dose: 100.0 mg/kg/injection, schedule: Q01DX005 (ip), vehicle: saline with Tween-80); 87 % of control (dose: 200.0 mg/kg/injection, schedule: Q01DX005 (ip), vehicle: saline with Tween-80).

`Cc1c2oc3c(C)c(N)cc(C(=O)NC4C(=O)NC(C(C)C)C(=O)N5CCCC5C(=O)N(C)CC(=O)N(C)C(C(C)C)C(=O)OC4C)c3nc-2c(C(=O)NC2C(=O)NC(C(C)C)C(=O)N3CCCC3C(=O)N(C)CC(=O)N(C)C(C(C)C)C(=O)OC2C)c(N)c1=O` (configuration not stated): the T/C was 153 % of control (dose: 75.0 micrograms/kg/injection, schedule: Q01DX009 (ip), vehicle: saline + alcohol); 151 % of control (dose: 225.0 micrograms/kg/injection, schedule: Q04DX003 (ip), vehicle: saline + alcohol); 90 % of control (dose: 450.0 micrograms/kg/injection, schedule: Q04DX003 (ip), vehicle: saline + alcohol).

`CC(C(=O)O)C(=O)O.[NH-]C1CCCCC1[NH-].[Pt+2]`: the T/C is 150 % of control (dose: 50.0 mg/kg/injection, schedule: Q04DX002 (ip), vehicle: Klucel (hydroxypropylcellulose) (HPC)) and 203 % of control (dose: 200.0 mg/kg/injection, schedule: Q04DX002 (ip), vehicle: Klucel (hydroxypropylcellulose) (HPC)).

Turning to `CC(=O)N/N=C(/C)C(=O)O`, the T/C (dose: 12.5 mg/kg/injection, schedule: Q01DX009 (ip), vehicle: water) was 93 % of control and 102 % of control and 114 % of control; the T/C (dose: 12.5 mg/kg/injection, schedule: Q04DX003 (ip), vehicle: water) is 95 % of control; the T/C (dose: 25.0 mg/kg/injection, schedule: Q04DX003 (ip), vehicle: water) was 100 % of control; the T/C (dose: 50.0 mg/kg/injection, schedule: Q04DX003 (ip), vehicle: water) was 100 % of control.

On to `c1ccc2cc(OCC3CO3)c(OCC3CO3)cc2c1` (configuration not stated), for which the T/C reads like this: (dose: 30.0 mg/kg/injection, schedule: Q01DX005 (ip), vehicle: saline with Tween-80) 161 % of control; (dose: 60.0 mg/kg/injection, schedule: Q01DX005 (ip), vehicle: saline with Tween-80) 157 % of control; (dose: 120.0 mg/kg/injection, schedule: Q01DX005 (ip), vehicle: saline with Tween-80) 176 % of control.

Turning to `Cc1cccc(C(=O)Cc2cccc(C#N)c2)c1`, the T/C is 113 % of control under setting [1], 99 % of control under setting [2] and 96 % of control under setting [3].

As to `COC(=O)OCCOC(=O)OC`, the T/C runs as follows: (dose: 100.0 mg/kg/injection, schedule: Q01DX009 (ip), vehicle: saline) 100 % of control; under setting [4], 95 % of control; under setting [5], 110 % of control; under setting [6], 100 % of control; under setting [7], 100 % of control; under setting [8], 100 % of control.

As for `CCOC(=O)c1ccc(C(=O)OCC)c(Cl)n1`, the T/C is 112 % of control under setting [9]; 95 % of control (dose: 25.0 mg/kg/injection, schedule: Q04DX003 (ip), vehicle: Klucel (hydroxypropylcellulose) (HPC)); 95 % of control under setting [10]; 100 % of control (dose: 50.0 mg/kg/injection, schedule: Q04DX003 (ip), vehicle: Klucel (hydroxypropylcellulose) (HPC)); 87 % of control under setting [11]; 86 % of control and 91 % of control (dose: 100.0 mg/kg/injection, schedule: Q04DX003 (ip), vehicle: Klucel (hydroxypropylcellulose) (HPC)).

Consider `C=C(CCCCC)C(=O)/C=C/c1ccc(Cl)cc1`, for which the T/C is, setting by setting: (dose: 100.0 mg/kg/injection, schedule: Q01DX001 (ip), vehicle: Klucel (hydroxypropylcellulose) (HPC)) 109 % of control; (dose: 200.0 mg/kg/injection, schedule: Q01DX001 (ip), vehicle: Klucel (hydroxypropylcellulose) (HPC)) 109 % of control; (dose: 400.0 mg/kg/injection, schedule: Q01DX001 (ip), vehicle: Klucel (hydroxypropylcellulose) (HPC)) 118 % of control.

Turning to `Cc1cccc(NS(=O)(=O)c2ccc(Cl)cc2)c1C`, the T/C was 100 % of control under setting [4], 95 % of control under setting [6] and 108 % of control under setting [8].

On to `CCS(=O)(=O)C(Br)CBr` (configuration not stated), for which the T/C by setting is: under setting [9], 114 % of control; under setting [10], 114 % of control; under setting [11], 105 % of control and 107 % of control.

On to `COC(=O)C1=C(C)NC(C)=C(C(=O)OC)C1C(C)SC#N` (configuration not stated), for which the T/C under setting [1] is 107 % of control, the T/C under setting [2] is 109 % of control and the T/C under setting [3] is 97 % of control.

For the compound `CNC(=O)NCCOC(=O)NC`, the T/C reads like this: under setting [5], 100 % of control; under setting [7], 100 % of control.

As to `O=c1c(Cl)c2cc3c(cc2c2ccccc12)nc1ccccc1n3-c1ccccc1`, the T/C (dose: 12.5 mg/kg/injection, schedule: Q01DX001 (ip), vehicle: saline with Tween-80) was 88 % of control and the T/C (dose: 25.0 mg/kg/injection, schedule: Q01DX001 (ip), vehicle: saline with Tween-80) is 88 % of control.

With `O=[N+]([O-])c1ccc(-c2ncc3cnccn23)cc1`, the T/C under setting [4] was 111 % of control, the T/C under setting [6] is 97 % of control and the T/C under setting [8] is 102 % of control.

Regarding `C/C(=N/S(=O)(=O)c1ccc(C)cc1)OCCN(C)C`, the T/C was 104 % of control (dose: 1.5 mg/kg/injection, schedule: Q01DX009 (ip), vehicle: saline with Tween-80); 109 % of control (dose: 3.0 mg/kg/injection, schedule: Q01DX009 (ip), vehicle: saline with Tween-80); 100 % of control (dose: 3.0 mg/kg/injection, schedule: Q04DX003 (ip), vehicle: saline with Tween-80); 118 % of control (dose: 6.0 mg/kg/injection, schedule: Q01DX009 (ip), vehicle: saline with Tween-80); 100 % of control (dose: 6.0 mg/kg/injection, schedule: Q04DX003 (ip), vehicle: saline with Tween-80).

For `BrC1c2cccc3cccc(c23)C1Br` (configuration not stated), the T/C under setting [2] is 150 % of control and the T/C under setting [3] was 88 % of control.

In the case of `CC(=O)Nc1ccc(S(=O)(=O)F)cc1`, the T/C (dose: 50.0 mg/kg/injection, schedule: Q04DX003 (ip), vehicle: saline with Tween-80) was 87 % of control; the T/C under setting [12] was 104 % of control; the T/C under setting [13] is 100 % of control.

Turning to `Cc1nc2ncn(C)c2nc1C`, the T/C runs as follows: (dose: 25.0 mg/kg/injection, schedule: Q01DX001 (ip), vehicle: saline sonified) 105 % of control; (dose: 50.0 mg/kg/injection, schedule: Q01DX001 (ip), vehicle: saline sonified) 100 % of control; (dose: 100.0 mg/kg/injection, schedule: Q01DX001 (ip), vehicle: saline sonified) 105 % of control.

For the compound `CCOC(=O)CCN(CC(=O)OCC)C(C)C`, the T/C was 104 % of control under setting [2]; 95 % of control under setting [12]; 104 % of control under setting [3]; 104 % of control under setting [13]; 109 % of control (dose: 400.0 mg/kg/injection, schedule: Q01DX009 (ip), vehicle: saline with Tween-80); 95 % of control (dose: 400.0 mg/kg/injection, schedule: Q04DX003 (ip), vehicle: saline with Tween-80).

Regarding `O=C1/C(=C/c2ccccc2)Cc2cccc(O)c21`, the T/C (dose: 37.5 mg/kg/injection, schedule: Q01DX001 (ip), vehicle: saline with Tween-80) is 100 % of control; the T/C (dose: 75.0 mg/kg/injection, schedule: Q01DX001 (ip), vehicle: saline with Tween-80) is 100 % of control; the T/C (dose: 150.0 mg/kg/injection, schedule: Q01DX001 (ip), vehicle: saline with Tween-80) was 100 % of control.

`CC(C)CNC(=S)/N=C1\CCN(c2ccccc2)N1`: the T/C is 118 % of control (dose: 4.5 mg/kg/injection, schedule: Q01DX009 (ip), vehicle: saline with Tween-80); 86 % of control (dose: 9.0 mg/kg/injection, schedule: Q01DX009 (ip), vehicle: saline with Tween-80); 92 % of control (dose: 18.0 mg/kg/injection, schedule: Q01DX009 (ip), vehicle: saline with Tween-80).
